This note sets out measurements from US6756373B1, “Pharmaceutically active compounds” (Pfizer Inc., priority 1999, dated 2004).

Each structure is given as a SMILES string.

The first data set deals with cGMP PDE5 (UniProt O76074). Put plainly: Phosphodiesterase (PDE) inhibitory activity: in vitro inhibition of cGMP PDE5 (batch method or scintillation proximity assay). To be noted: in vitro activity as inhibitors of cGMP PDE5. For orientation: Scintillation proximity formats need no separation of bound from free tracer.
Procedure: Phosphodiesterases 7-11 were generated from full length human recombinant clones transfected into SF9 cells.
In summary, the effect of PDE inhibitors was investigated by assaying a fixed amount of enzyme in the presence of varying inhibitor concentrations and low substrate, (cGMP or cAMP in a 3:1 ratio unlabelled to [^3H]-labeled at a conc ˜1/3 Km) such that IC50≅Ki. The final assay volume was made up to 100 μl with assay buffer [20 mM Tris-HCl pH 7.4, 5 mM MgCl2, 1 mg/ml bovine serum albumin].
The term IC50 denotes the concentration at which inhibition is half-maximal. High values mean weaker potency, low ones greater potency. The molecule `CCCCOc1ncc(C(=O)N(C)OC)cc1-c1nc2c(CC)n(CCOC)nc2c(=O)[nH]1` [Example 5, 6-Butoxy-5-[3-ethyl-2-(2-methoxyethyl)-7-oxo-6,7-dihydro-2H-pyrazolo[4,3-d]pyrimidin-5-yl]-N-methoxy-N-methylnicotinamide] gave an IC50 of 8.5 nM.

As to `CCCCOc1ncc(C(C)=O)cc1-c1nc2c(CC)n(CCOC)nc2c(=O)[nH]1` [Example 16, 5-(5-Acetyl-2-butoxy-3-pyridinyl)-3-ethyl-2-(2-methoxyethyl)-2,6-dihydro-7H-pyrazolo[4,3-d]pyrimidin-7-one], inhibition was half-maximal at 6.55 nM (IC50).

In turn, `CCCCOc1ncc(C(=O)CN2CCOCC2)cc1-c1nc2c(CC)n(CCOC)nc2c(=O)[nH]1` [Example 34, 5-[2-Butoxy-5-(4-morpholinylacetyl)-3-pyridinyl]-3-ethyl-2-(2-methoxyethyl)-2,6-dihydro-7H-pyrazolo[4,3-d]pyrimidin-7-one] registered an IC50 of 30.7 nM.

Regarding `CCCCOc1ncc(C(C)=O)cc1-c1nc2c(CC)n(CCN3CCOCC3)nc2c(=O)[nH]1` [Example 48], it took 2.45 nM to reach half-maximal inhibition (IC50).

As for `CCCCOc1ncc(C(C)=O)cc1-c1nc2c(CC)n(C3CCNCC3)nc2c(=O)[nH]1` [Example 49, 5-(5-Acetyl-2-butoxy-3-pyridinyl)-3-ethyl-2-(4-piperidinyl)-2,6-dihydro-7H-pyrazolo[4,3-d]pyrimidin-7-one], the IC50 was found to be 18 nM.

Tested on in another data set: not given
Assay: not given
Settings: not given
A word on the melting point: it is the temperature of the solid-liquid transition. `CCCOc1ncc(C#C[Si](C)(C)C)cc1-c1nc2c(CC)nn(CCN3CCOCC3)c2c(=O)[nH]1`: the melting point lay within 132 to 134 °C.

In the case of `CCCCOc1ncc(-c2ccco2)cc1-c1nc2c(CC)n(CCOC)nc2c(=O)[nH]1` [Example 12, 5-[2-Butoxy-5-(2-furyl)-3-pyridinyl]-3-ethyl-2-(2-methoxyethyl)-2,6-dihydro-7H-pyrazolo[4,3-d]pyrimidin-7-one], the melting point was in the range of 154 to 155 °C.

`CCCOc1ncc(C#N)cc1-c1nc2c(CCC)nn(C)c2c(=O)[nH]1` [Example 70, 5-(1-Methyl-7-oxo-3-propyl-6,7-dihydro-1-pyrazolo[4,3-d]pyrimidin-5-yl)-6-propoxynicotinonitrile] returned a melting point of 174 to 176 °C.

With `CCCc1nn(C)c2c(=O)[nH]c(-c3cc([N+](=O)[O-])cnc3OC3CCC3)nc12` [Example 88, 5-[2-(Cyclobutyloxy)-5-nitro-3-pyridinyl]-1-methyl-3-propyl-1,6-dihydro-7H-pyrazolo[4,3-d]pyrimidin-7-one], the melting point was in the range of 212 to 214 °C.

As for `CCCc1nn(C)c2c(=O)[nH]c(-c3cc(NC(C)=O)cnc3OC3CCC3)nc12` [Example 89, N-[6-(Cyclobutyloxy)-5-(1-methyl-7-oxo-3-propyl-6,7-dihydro-1H-pyrazolo[4,3-d]pyrimidin-5-yl)-3-pyridinyl]acetamide], the melting point was 279 to 281 °C.

For the molecule `CCCc1nn(C)c2c(=O)[nH]c(-c3cc(N)cnc3OC3CCC3)nc12` [Example 90, 5-[5-Amino-2-(cyclobutyloxy)-3-pyridinyl]-1-methyl-3-propyl-1,6-dihydro-7H-pyrazolo[4,3-d]pyrimidin-7-one], the melting point lay in the range of 185 to 185.5 °C.

In turn, `CCCOc1ncc(NC(=O)N(C)C)cc1-c1nc2c(CCC)nn(C)c2c(=O)[nH]1` [Example 91, N′-[6-(Propoxy)-5-(1-methyl-7-oxo-3-propyl-6,7-dihydro-1H-pyrazolo[4,3-d]pyrimidin-5-yl)-3-pyridinyl]-N,N-dimethylurea] came in with a melting point of 219 to 220 °C.

`CCCOc1ncc(NC(C)=O)cc1-c1nc2c(CCC)nn(C)c2c(=O)[nH]1` [Example 92, N-[6-(Propoxy)-5-(1-methyl-7-oxo-3-propyl-6,7-dihydro-1H-pyrazolo[4,3-d]pyrimidin-5-yl)-3-pyridinyl]acetamide] yielded a melting point of 252 to 253 °C.

`CCCOc1ncc(N(C)C)cc1-c1nc2c(CCC)nn(C)c2c(=O)[nH]1` [Example 93, 5-[5-(Dimethylamino)-2-propoxy-3-pyridinyl]-1-methyl-3-propyl-1,6-dihydro-7H-pyrazolo[4,3-d]pyrimidin-7-one] displayed a melting point of 162 to 162.5 °C.

In turn, `CCCOC(=O)Nc1cnc(OCCC)c(-c2nc3c(CCC)nn(C)c3c(=O)[nH]2)c1` [Example 94, Propyl 5-(1-Methyl-7-oxo-3-propyl-6,7-dihydro-1H-pyrazolo[4,3-d]pyrimidin-5-yl)-6-propoxy-3-pyridinylcarbamate] yielded a melting point of 210 to 211 °C.

`CCCOc1ncc(I)cc1-c1nc2c(CC)nn(CCN3CCOCC3)c2c(=O)[nH]1` [Example 95, 3-Ethyl-5-(5-iodo-2-propoxy-3-pyridinyl)-1-[2-(4-morpholinyl)ethyl]-1,6-dihydro-7H-pyrazolo[4,3-d]pyrimidin-7-one] showed a melting point of 175 to 177 °C.

Take `CCCOc1ncc(I)cc1-c1nc2c(CC)n(Cc3ccccn3)nc2c(=O)[nH]1` [Example 98, 5-(2-Propoxy-5-iodo-3-pyridinyl)-3-ethyl-2-(2-pyridinylmethyl)-2,6-dihydro-7H-pyrazolo[4,3-d]pyrimidin-7-one]: the melting point was 228.9 to 233.8 °C.

`C#Cc1cnc(OCCC)c(-c2nc3c(CC)nn(CCN4CCOCC4)c3c(=O)[nH]2)c1` [Example 107, 3-Ethyl-5-(5-ethynyl-2-propoxy-3-pyridinyl)-1-[2-(4-morpholinyl)ethyl]-1,6-dihydro-7H-pyrazolo[4,3-d]pyrimidin-7-one] gave a melting point of 137 to 139 °C.

`C#Cc1cnc(OCCC)c(-c2nc3c(CC)n(C4CCN(C(=O)OC(C)(C)C)CC4)nc3c(=O)[nH]2)c1` [Example 112, tert-Butyl 4-[3-Ethyl-5-(5-ethynyl-2-propoxy-3-pyridinyl)-7-oxo-6,7-dihydro-2H-pyrazolo[4,3-d]pyrimidin-2-yl]-1-piperidinecarboxylate]: the melting point came to 221 °C.

As to `CCCOc1ncc(C(C)=O)cc1-c1nc2c(CC)nn(CCN3CCOCC3)c2c(=O)[nH]1` [Example 113, 5-(5-Acetyl-2-propoxy-3-pyridinyl)-3-ethyl-1-[2-(4-morpholinyl)ethyl]-1,6-dihydro-7H-pyrazolo[4,3-d]pyrimidin-7-one], the melting point was in the range of 140 to 143 °C.

As to `CCCOc1ncc(C(C)=O)cc1-c1nc2c(CC)n(C3CNC3)nc2c(=O)[nH]1` [Example 117, 5-(5-Acetyl-2-propoxy-3-pyridinyl)-2-(3-azetidinyl)-3-ethyl-2,6-dihydro-7H-pyrazolo[4,3-d]pyrimidin-7-one], the melting point was in the range of 128.5 to 130 °C.

For `CCCOc1ncc(C(C)=O)cc1-c1nc2c(CC)n(C3CN(C)C3)nc2c(=O)[nH]1` [Example 120, 5-(5-Acetyl-2-propoxy-3-pyridinyl)-3-ethyl-2-(1-methyl-3-azetidinyl)-2,6-dihydro-7H-pyrazolo[4,3-d]pyrimidin-7-one], the melting point lay in the range of 175.9 to 177 °C.

Regarding `CCCOc1ncc(C(C)=O)cc1-c1nc2c(CC)n(C3CN(C(C)=O)C3)nc2c(=O)[nH]1` [Example 121, 2-(1-Acetyl-3-azetidinyl)-5-(5-acetyl-2-propoxy-3-pyridinyl)-3-ethyl-2,6-dihydro-7H-pyrazolo[4,3-d]pyrimidin-7-one], the melting point lay within 229.3 to 230.1 °C.

Take `CCCOc1ncc(C(C)=O)cc1-c1nc2c(CC)n(C3CCN(C(C)=O)CC3)nc2c(=O)[nH]1` [Example 122, 2-(1-acetyl-4-piperidinyl)-5-(5-acetyl-2-propoxy-3-pyridinyl)-3-ethyl-2,6-dihydro-7H-pyrazolo[4,3-d]pyrimidin-7-one]: the melting point is 213 to 214 °C.

`CCCOc1ncc(C(C)=O)cc1-c1nc2c(CC)n(C3CN(C(C)CC)C3)nc2c(=O)[nH]1` (stereo not drawn) [Example 123, 5-(5-Acetyl-2-propoxy-3-pyridinyl)-2-(1-sec-butyl-3-azetidinyl)-3-ethyl-2,6-dihydro-7H-pyrazolo[4,3-d]pyrimidin-7-one] showed a melting point of 176.5 to 177.7 °C.

On to `CCCOc1ncc(C(C)=O)cc1-c1nc2c(CC)n(C3CN(C(C)C)C3)nc2c(=O)[nH]1` [Example 124, 5-(5-Acetyl-2-propoxy-3-pyridinyl)-3-ethyl-2-(1-isopropyl-3-azetidinyl)-2,6-dihydro-7H-pyrazolo[4,3-d]pyrimidin-7-one], for which the melting point fell in the range of 162.8 to 163.6 °C.

Molecule `CCCOc1ncc(C(C)=O)cc1-c1nc2c(CC)n(C3CCN(C)CC3)nc2c(=O)[nH]1` [Example 125, 5-(5-Acetyl-2-propoxy-3-pyridinyl)-3-ethyl-2-(1-methyl-4-piperidinyl)-2,6-dihydro-7H-pyrazolo[4,3-d]pyrimidin-7-one] had a melting point of 219 to 220 °C.

For `CCCCOc1ncc(C(C)=O)cc1-c1nc2c(CC)n(CC3CC3)nc2c(=O)[nH]1` [Example 127], the melting point fell in the range of 184 to 185 °C.

`CCOc1ncc(C(C)=O)cc1-c1nc2c(CC)n(CC3CC3)nc2c(=O)[nH]1` [Example 128]: the melting point was in the range of 200 to 201 °C.

For `CCCCOc1ncc(C(C)=O)cc1-c1nc2c(CC)n(C3CCN(C(=O)OC(C)(C)C)CC3)nc2c(=O)[nH]1` [Example 129, tert-Butyl 4-[5-(5-Acetyl-2-butoxy-3-pyridinyl)-3-ethyl-7-oxo-6,7-dihydro-2H-pyrazolo[4,3-d]pyrimidin-2-yl]-1-piperidinecarboxylate], the melting point fell in the range of 194 to 195 °C.

The molecule `CCCCOc1ncc(C(C)=O)cc1-c1nc2c(CC)n(C3CCN(C(C)=O)CC3)nc2c(=O)[nH]1` [Example 131, 5-(5-Acetyl-2-butoxy-3-pyridinyl)-2-(1-acetyl-4-piperidinyl)-3-ethyl-2,6-dihydro-7H-pyrazolo[4,3-d]pyrimidin-7-one] registered a melting point of 156 to 157 °C.

With `CCc1c2nc(-c3cc(C(C)=O)cnc3OCC(C)C)[nH]c(=O)c2nn1C1CCN(C)CC1` [Example 135, 5-(5-Acetyl-2-isobutoxy-3-pyridinyl)-3-ethyl-2-(1-methyl-4-piperidinyl)-2,6-dihydro-7H-pyrazolo[4,3-d]pyrimidin-7-one], the melting point lay within 195 to 196 °C.

`CCOc1ncc(C(C)=O)cc1-c1nc2c(CC)nn(Cc3nccn3C)c2c(=O)[nH]1` [Example 138, 5-(5-Acetyl-2-ethoxy-3-pyridinyl)-3-ethyl-1-[(1-methyl-1H-imidazol-2-yl)methyl]-1,6-dihydro-7H -pyrazolo[4,3-d]pyrimidin-7-one] gave a melting point of 217.9 to 218.7 °C.
